Biological target: T1, EZH2 (Homo sapiens, UniProt Q15910)
T1 construct: Protocol of the Cellular Assay of Target Protein Degradation (VCaP Cells, ELISA); endogenous in cells; host or cells: VCaP cells
Assay: Cellular assay of target protein degradation (VCaP cells, ELISA)
Format: cell-based
Conditions: 4 hours, protein degradation range at indicated concentration (relative to DMSO control)
Procedure: Protocol of the Cellular Assay of Target Protein Degradation (VCaP Cells, ELISA).
For detection Cell Signaling PathScan Sandwich ELISA Catalog #12850 Lot 11 was used. VCaP cells were cultured in ATCC DMEM+ATCC FBS and plated 40,000/well 100 μl/well in RPMI P/S with 5% CSS Omega (bovine) serum into a 96 well plate. The cells were grown for a minimum of 3 days, dosed with compounds in 0.1% DMSO (diluted with 5% CSS) and incubated with aspiration for 4 hours. 100 μl of 1× Cell Signaling lysis buffer #9803 (36 mL dH2O+4 mL Cell Signaling lysis buffer) was added. The incubation was placed on cold room shaker for 10 minutes at speed 8-9. 5 μl to 100 μL of Diluent was transferred to ELISA plate (0.15 μg/mL−0.075 μg/mL) and stored at 4° C. overnight on cold room shaker speed 5 (gentle swirl) and then shaken next morning at 37° C. for 30 minutes. The preparation was washed 4×200 μl with ELISA wash buffer and aspirated with eight-channel aspirator. 100 μl/well of target protein detection antibody was added after, which the preparation was covered and shaken at 37° C. for 1 hour. 100 μl TMB was added, and the mixture was shaken for 5 min while under observation. When TMB turned light blue, 100 μl of Stop solution was added, and the mixture was shaken and read at 450 nm. Also read at 562 nm for background subtraction.

T1 sequence (Q15910 whole entry): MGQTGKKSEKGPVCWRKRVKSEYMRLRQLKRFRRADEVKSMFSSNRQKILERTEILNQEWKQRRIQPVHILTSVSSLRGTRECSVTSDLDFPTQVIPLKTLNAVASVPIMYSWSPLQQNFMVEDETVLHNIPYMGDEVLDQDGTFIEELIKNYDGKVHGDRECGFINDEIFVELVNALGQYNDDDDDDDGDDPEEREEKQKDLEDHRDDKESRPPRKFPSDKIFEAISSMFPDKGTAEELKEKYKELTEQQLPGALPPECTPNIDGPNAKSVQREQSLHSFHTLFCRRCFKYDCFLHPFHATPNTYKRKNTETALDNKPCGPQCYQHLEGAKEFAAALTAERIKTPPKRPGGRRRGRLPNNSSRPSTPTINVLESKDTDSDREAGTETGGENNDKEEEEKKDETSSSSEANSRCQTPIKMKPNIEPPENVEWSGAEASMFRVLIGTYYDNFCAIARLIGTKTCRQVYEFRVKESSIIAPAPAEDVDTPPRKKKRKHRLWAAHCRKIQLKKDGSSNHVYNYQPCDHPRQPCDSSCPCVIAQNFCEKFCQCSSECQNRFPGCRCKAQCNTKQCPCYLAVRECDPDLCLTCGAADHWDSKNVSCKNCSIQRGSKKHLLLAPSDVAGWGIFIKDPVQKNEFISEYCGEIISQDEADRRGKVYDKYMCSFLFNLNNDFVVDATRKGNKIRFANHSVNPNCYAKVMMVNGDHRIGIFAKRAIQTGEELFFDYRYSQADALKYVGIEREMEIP
T1 sequence (O75530 whole entry partner): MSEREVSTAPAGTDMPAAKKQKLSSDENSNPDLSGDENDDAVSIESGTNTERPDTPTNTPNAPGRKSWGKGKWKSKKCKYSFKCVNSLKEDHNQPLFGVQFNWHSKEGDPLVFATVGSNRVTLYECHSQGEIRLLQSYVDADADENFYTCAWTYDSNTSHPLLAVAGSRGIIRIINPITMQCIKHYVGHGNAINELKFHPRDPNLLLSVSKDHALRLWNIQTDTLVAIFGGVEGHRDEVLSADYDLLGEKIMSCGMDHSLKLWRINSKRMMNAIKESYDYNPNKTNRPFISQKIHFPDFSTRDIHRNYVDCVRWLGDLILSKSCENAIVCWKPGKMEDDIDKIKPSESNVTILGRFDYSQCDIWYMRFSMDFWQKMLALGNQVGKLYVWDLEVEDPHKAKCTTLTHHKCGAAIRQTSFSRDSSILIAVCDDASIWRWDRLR
T1 sequence (Q15022 whole entry partner): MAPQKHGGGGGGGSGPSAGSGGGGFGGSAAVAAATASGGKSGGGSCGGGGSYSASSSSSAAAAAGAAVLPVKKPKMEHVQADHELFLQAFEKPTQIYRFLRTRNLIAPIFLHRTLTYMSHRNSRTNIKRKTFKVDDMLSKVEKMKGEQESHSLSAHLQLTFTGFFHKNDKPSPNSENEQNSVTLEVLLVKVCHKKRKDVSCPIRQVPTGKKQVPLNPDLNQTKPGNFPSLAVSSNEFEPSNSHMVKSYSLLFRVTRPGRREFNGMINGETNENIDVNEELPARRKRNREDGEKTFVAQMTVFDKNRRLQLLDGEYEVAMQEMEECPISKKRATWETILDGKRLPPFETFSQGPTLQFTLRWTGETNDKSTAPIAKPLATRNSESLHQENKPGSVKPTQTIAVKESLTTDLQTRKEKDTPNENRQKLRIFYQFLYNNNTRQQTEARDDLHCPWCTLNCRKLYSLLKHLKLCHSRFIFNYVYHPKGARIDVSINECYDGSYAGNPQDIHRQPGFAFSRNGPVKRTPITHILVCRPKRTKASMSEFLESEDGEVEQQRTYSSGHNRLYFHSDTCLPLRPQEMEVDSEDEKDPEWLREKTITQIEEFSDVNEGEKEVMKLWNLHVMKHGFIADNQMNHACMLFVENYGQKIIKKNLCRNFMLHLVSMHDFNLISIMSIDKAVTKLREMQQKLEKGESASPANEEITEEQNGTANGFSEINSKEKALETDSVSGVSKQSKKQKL

Compound | percent target protein degradation class
CCN(c1cc(-c2ccc(OCCOCCOCCOc3cc(-c4scnc4C)ccc3CNC(=O)[C@@H]3C[C@@H](O)CN3C(=O)[C@H](C(C)C)N3Cc4ccccc4C3=O)cc2)cc(C(=O)NCc2c(C)cc(C)[nH]c2=O)c1C)C1CCOCC1 [Compound 37, (2S,4R)-N-({2-[2-(2-{2-[4(3-{[(4,6-dimethyl-2-oxo-1,2-dihydropyridin-3-yl)methyl]carbamoyl}-5-[ethyl(oxan-4-yl)amino]-4-methylphenyl)phenoxy]ethoxy}ethoxy)ethoxy]-4-(4-methyl-1,3-thiazol-5-yl)phenyl}methyl)-4-hydroxy-1-[(2S)-3-methyl-2-(1-oxo-2,3-dihydro-1H-isoindol-2-yl)butanoyl]pyrrolidine-2-carboxamide] | A (A = degradation more than 60%)
Cc1cc(C)c(CNC(=O)c2c(C)n(C(C)C3CCN(C(=O)COCCOCCOCCOCCOCC(=O)N[C@H](C(=O)N4C[C@H](O)C[C@H]4C(=O)NCc4ccc(-c5scnc5C)cc4)C(C)(C)C)CC3)c3ccccc23)c(=O)[nH]1 (stereo partly drawn) [Compound 11, N-[(4,6-dimethyl-2-oxo-1,2-dihydropyridin-3-yl)methyl]-1-{1-[1-(1-{[(2S)-1-[(2S,4R)-4-hydroxy-2-({[4-(4-methyl-1,3-thiazol-5-yl)phenyl]methyl}carbamoyl)pyrrolidin-1-yl]-3,3-dimethyl-1-oxobutan-2-yl]carbamoyl}-2,5,8,11,14-pentaoxahexadecanoyl)piperidin-4-yl]ethyl}-2-methyl-1H-indole-3-carboxamide] | B (B = degradation between 30% and 60%)
CCN(c1cc(-c2ccc(OCCOCCOCCOCCOCCOc3ccc(CCN4CC[C@@H]5CCN(C(=O)[C@@H](NC(=O)[C@H](C)NC)C6CCCCC6)[C@@H]5C4)cc3)cc2)cc(C(=O)NCc2c(C)cc(C)[nH]c2=O)c1C)C1CCOCC1 (racemic) [Compound 29, 5-(4-{[1-(4-{2-[(3aR,7aS)-1-[(2S)-2-cyclohexyl-2-[(2S)-2-(methylamino)propanamido]acetyl]-octahydro-1H-pyrrolo[2,3-c]pyridin-6-yl]ethyl]phenyl)-1,4,7,10,13-pentaoxapentadecan-15-yl]oxy}phenyl)-N-[(4,6-dimethyl-2-oxo-1,2-dihydropyridin-3-yl)methyl]-3-[ethyl(oxan-4-yl)amino]-2-methylbenzamide] | B (B = degradation between 30% and 60%)
CCN(c1cc(-c2ccc(OCCCOc3ccc4c(c3)C(=O)N([C@H](C(=O)N3C[C@H](O)C[C@H]3C(=O)N[C@@H](C)c3ccc(-c5scnc5C)cc3)C(C)C)C4)cc2)cc(C(=O)NCc2c(C)cc(C)[nH]c2=O)c1C)C1CCOCC1 [Compound 98, (2S,4R)-1-((S)-2-(6-(3-((3′-(((4,6-dimethyl-2-oxo-1,2-dihydropyridin-3-yl)methyl)carbamoyl)-5′-(ethyl(tetrahydro-2H-pyran-4-yl)amino)-4′-methyl-[1,1′-biphenyl]-4-yl)oxy)propoxy)-1-oxoisoindolin-2-yl)-3-methylbutanoyl)-4-hydroxy-N-((S)-1-(4-(4-methylthiazol-5-yl)phenyl)ethyl)pyrrolidine-2-carboxamide] | B (B = degradation between 30% and 60%)
CCN(c1cc(-c2ccc(OCCOc3ccc4c(c3)C(=O)N([C@H](C(=O)N3C[C@H](O)C[C@H]3C(=O)N[C@@H](C)c3ccc(-c5scnc5C)cc3)C(C)C)C4)cc2)cc(C(=O)NCc2c(C)cc(C)[nH]c2=O)c1C)C1CCOCC1 [Compound 100] | A (A = degradation more than 60%)
(2R,3S,4R,5S)-3-(3-chloro-2- fluorophenyl)-4-(4-chloro-2- fluorophenyl)-4-cyano-N-[4- ({1-[4-(3-{[(4,6-dimethyl-2- oxo-1,2-dibydropyridin-3- yl)methyl]carbamoyl}-5- [ethyl(oxan-4-yl)amino]-4- methylphenyl)phenyl]-1,4,7,10- tetraoxadodecan-12- yl}carbamoyl)-2- methoxyphenyl]-5-(2,2- dimethylpropyl)pyrrolidine-2- carboxamide [Compound 24] | B (B = degradation between 30% and 60%)
CCN(c1cc(-c2ccc(OCCOCCOCCOCCOCCOCCOCCNc3cccc4c3C(=O)N(C3CCC(=O)NC3=O)C4=O)cc2)cc(C(=O)NCc2c(C)cc(C)[nH]c2=O)c1C)C1CCOCC1 (stereo not shown) [Compound 20, N-[(4,6-dimethyl-2-oxo-1,2-dihydropyridin-3-yl)methyl]-5-[4-({1-[2-(2,6-dioxopiperidin-3-yl)-1,3-dioxo-2,3-dihydro-1H-isoindol-4-yl]-4,7,10,13,16,19-hexaoxa-1-azahenicosan-21-yl}oxy)phenyl]-3-[ethyl(oxan-4-yl)amino]-2-methylbenzamide] | B (B = degradation between 30% and 60%)
CCN(c1cc(-c2ccc(OCCCCOc3ccc4c(c3)C(=O)N(C(C(=O)N3C[C@H](O)C[C@H]3C(=O)N[C@@H](C)c3ccc(-c5scnc5C)cc3)C(C)C)C4)cc2)cc(C(=O)NCc2c(C)cc(C)[nH]c2=O)c1C)C1CCOCC1 (stereo partly drawn) [Compound 103, (2S,4R)-1-(2-(6-(4-((3′-(((4,6-dimethyl-2-oxo-1,2-dihydropyridin-3-yl)methyl)carbamoyl)-5′-(ethyl(tetrahydro-2H-pyran-4-yl)amino)-4′-methyl-[1,1′-biphenyl]-4-yl)oxy)butoxy)-1-oxoisoindolin-2-yl)-3-methylbutanoyl)-4-hydroxy-N-((S)-1-(4-(4-methylthiazol-5-yl)phenyl)ethyl)pyrrolidine-2-carboxamide] | B (B = degradation between 30% and 60%)
CCN(c1cc(-c2ccc(OCCOCc3ccc4c(c3)C(=O)N([C@H](C(=O)N3C[C@H](O)C[C@H]3C(=O)N[C@@H](C)c3ccc(-c5scnc5C)cc3)C(C)C)C4)cc2)cc(C(=O)NCc2c(C)cc(C)[nH]c2=O)c1C)C1CCOCC1 [Compound 108, (2S,4R)-1-((S)-2-(6-((2-((3′-(((4,6-dimethyl-2-oxo-1,2-dihydropyridin-3-yl)methyl)carbamoyl)-5′-(ethyl(tetrahydro-2H-pyran-4-yl)amino)-4′-methyl-[1,1′-biphenyl]-4-yl)oxy)ethoxy)methyl)-1-oxoisoindolin-2-yl)-3-methylbutanoyl)-4-hydroxy-N-((S)-1-(4-(4-methylthiazol-5-yl)phenyl)ethyl)pyrrolidine-2-carboxamide] | B (B = degradation between 30% and 60%)
CCN(c1cc(-c2ccc(OCCCOCCCOCCCOc3cc(-c4scnc4C)ccc3CNC(=O)[C@@H]3C[C@@H](O)CN3C(=O)[C@H](C(C)C)N3Cc4ccccc4C3=O)cc2)cc(C(=O)NCc2c(C)cc(C)[nH]c2=O)c1C)C1CCOCC1 [Compound 39, (2S,4R)-N-({2-[3-(3-{3-[4-(3-{[(4,6-dimethyl-2-oxo-1,2-dihydropyridin-3-yl)methyl]carbamoyl}-5-[ethyl(oxan-4-yl)amino]-4-methylphenyl)phenoxy]propoxy}propoxy)propoxy]-4-(4-methyl-1,3-thiazol-5-yl)phenyl}methyl)-4-hydroxy-1-[(2S)-3-methyl-2-(1-oxo-2,3-dihydro-1H-isoindol-2-yl)butanoyl]pyrrolidine-2-carboxamide] | B (B = degradation between 30% and 60%)
CCN(c1cc(-c2ccc(CN3CCC(CN4CCN(c5ccc6c(c5)C(=O)N(C5CCC(=O)NC5=O)C6=O)CC4)CC3)cc2)cc(C(=O)NCc2c(C)cc(C)[nH]c2=O)c1C)C1CCOCC1 (stereo not shown) [Compound 115, N-((4,6-dimethyl-2-oxo-1,2-dihydiopyridin-3-yl)methyl)-4′-((4-((4-(2-(2,6-dioxopiperidin-3-yl)-1,3-dioxoisoindolin-5-yl)piperazin-1-yl)methyl)piperidin-1-yl)methyl)-5-(ethyl(tetrahydro-2H-pyran-4-yl)amino)-4-methyl-[1,1′-biphenyl]-3-carboxamide] | B (B = degradation between 30% and 60%)
CCN(c1cc(-c2ccc(OCCCCOc3ccc4c(c3)C(=O)N([C@@H](C(=O)N3C[C@H](O)C[C@H]3C(=O)N[C@@H](C)c3ccc(-c5scnc5C)cc3)C(C)C)C4)cc2)cc(C(=O)NCc2c(C)cc(C)[nH]c2=O)c1C)C1CCOCC1 [Compound 101, (2S,4R)-1-((R)-2-(6-(4-((3′-(((4,6-dimethyl-2-oxo-1,2-dihydropyridin-3-yl)methyl)carbamoyl)-5′-(ethyl(tetrahydro-2H-pyran-4-yl)amino)-4′-methyl-[1,1′-biphenyl]-4-yl)oxy)butoxy)-1-oxoisoindolin-2-yl)-3-methylbutanoyl)-4-hydroxy-N-((S)-1-(4-(4-methylthiazol-5-yl)phenyl)ethyl)pyrrolidine-2-carboxamide] | B (B = degradation between 30% and 60%)
CCN(c1cc(-c2ccc(OCCCCOc3ccc4c(c3)C(=O)N([C@H](C(=O)N3C[C@H](O)C[C@H]3C(=O)N[C@@H](C)c3ccc(-c5scnc5C)cc3)C(C)C)C4)cc2)cc(C(=O)NCc2c(C)cc(C)[nH]c2=O)c1C)C1CCOCC1 [Compound 102] | B (B = degradation between 30% and 60%)
